{
  "source": "paper PMC9283466",
  "about": "“In silico identification of two peptides with antibacterial activity against multidrug-resistant Staphylococcus aureus” (NPJ Biofilms and Microbiomes, 2022)",
  "key": {"E. coli K12": {"system": "E. coli K12", "assay": "microbe, parasite or virus in culture", "format": "cell-based, Escherichia coli", "conditions": "Escherichia coli; E. coli K12; read-out: MIC", "protocol": "(§1) To determine the antimicrobial activity of the new antimicrobial peptides, HG2 and HG4, their minimum inhibitory concentrations (MICs) were determined by broth microdilution method[51] in cation adjusted Mueller Hinton broth (MHB) following the International Organisation for Standardisation (ISO) 20776-1 standard for MIC testing using a final bacterial inoculum of 5 × 10^5 CFU/ml[52]. […] The peptides dissolved in sterile distilled water were added to bacteria culture and incubated overnight at appropriate conditions. The MICs of the peptides and comparator antibiotics were recorded after 18–24 h. The minimum bactericidal concentrations (MBCs) were also determined and were taken as the lowest concentration of the antimicrobial that prevented the growth of bacterial cells after the subculture of cells (from MIC treatment) onto antibiotic-free media."}, "E. coli": {"system": "E. coli", "assay": "microbe, parasite or virus in culture", "format": "cell-based, Escherichia coli", "conditions": "Escherichia coli, read-out: Minimum inhibitory Concentrations MICs", "protocol": "as §1"}, "Ent. faecalis": {"system": "Ent. faecalis", "assay": "microbe, parasite or virus in culture", "format": "cell-based, Enterococcus faecalis", "conditions": "Enterococcus faecalis; Ent. faecalis; Supplementary Table 5; read-out: Minimum inhibitory Concentrations MICs", "protocol": "as §1"}, "Ent. faecalis JH2-2": {"system": "Ent. faecalis JH2-2", "assay": "microbe, parasite or virus in culture", "format": "cell-based, Enterococcus faecalis", "conditions": "Enterococcus faecalis, JH22; Ent. faecalis JH2-2; read-out: MIC", "protocol": "as §1"}, "S. aureus": {"system": "S. aureus", "assay": "microbe, parasite or virus in culture", "format": "cell-based, Staphylococcus aureus", "conditions": "Staphylococcus aureus, read-out: Minimum inhibitory Concentrations MICs", "protocol": "as §1"}, "EMRA-15": {"system": "EMRA-15", "assay": "microbe, parasite or virus in culture", "format": "cell-based, Staphylococcus aureus", "conditions": "Staphylococcus aureus; EMRA-15; Supplementary Table 5; read-out: Minimum inhibitory Concentrations MICs", "protocol": "as §1"}, "S. aureus EMRSA-15": {"system": "S. aureus EMRSA-15", "assay": "microbe, parasite or virus in culture", "format": "cell-based, Staphylococcus aureus", "conditions": "Staphylococcus aureus; S. aureus EMRSA-15; resistances MRSA, Cip; read-out: MIC", "protocol": "as §1"}, "Sal. typhimurium SL1344": {"system": "Sal. typhimurium SL1344", "assay": "microbe, parasite or virus in culture", "format": "cell-based, Salmonella enterica serovar Typhimurium", "conditions": "Salmonella enterica; Sal. typhimurium SL1344; read-out: MIC", "protocol": "as §1"}, "Sal. typhimurium": {"system": "Sal. typhimurium", "assay": "microbe, parasite or virus in culture", "format": "cell-based, Salmonella enterica serovar Typhimurium", "conditions": "Salmonella enterica; Sal. typhimurium; Supplementary Table 5; read-out: Minimum inhibitory Concentrations MICs", "protocol": "as §1"}, "K. pneumoniae 518842": {"system": "K. pneumoniae 518842", "assay": "microbe, parasite or virus in culture", "format": "cell-based, Klebsiella pneumoniae", "conditions": "Klebsiella pneumoniae, 518842", "protocol": "as §1"}, "K. pneumoniae 526903": {"system": "K. pneumoniae 526903", "assay": "microbe, parasite or virus in culture", "format": "cell-based, Klebsiella pneumoniae", "conditions": "Klebsiella pneumoniae; K. pneumoniae 526903; sensitive; read-out: MIC", "protocol": "as §1"}, "K. pneumoniae NCTC 13442": {"system": "K. pneumoniae NCTC 13442", "assay": "microbe, parasite or virus in culture", "format": "cell-based, Klebsiella pneumoniae", "conditions": "Klebsiella pneumoniae, NCTC13442; K. pneumoniae NCTC 13442; OXA-48; read-out: MIC", "protocol": "as §1"}, "[1]": {"system": "K. pneumoniae ATCC 700603", "assay": "microbe, parasite or virus in culture", "format": "cell-based, Klebsiella pneumoniae", "conditions": "Klebsiella pneumoniae, ATCC700603; K. pneumoniae ATCC 700603; SHV-18; read-out: MIC", "protocol": "as §1"}, "[2]": {"system": "A. baumannii (IMI, MER resistant; strain ID not given)", "assay": "microbe, parasite or virus in culture", "format": "cell-based, Acinetobacter baumannii", "conditions": "Acinetobacter baumannii, A. baumannii, no strain ID, MER, read-out: MIC", "protocol": "as §1"}, "A. baumannii 515722": {"system": "A. baumannii 515722", "assay": "microbe, parasite or virus in culture", "format": "cell-based, Acinetobacter baumannii", "conditions": "Acinetobacter baumannii; A. baumannii 515722; sensitive; read-out: MIC", "protocol": "as §1"}, "A. baumannii 515908": {"system": "A. baumannii 515908", "assay": "microbe, parasite or virus in culture", "format": "cell-based, Acinetobacter baumannii", "conditions": "Acinetobacter baumannii; A. baumannii 515908; sensitive; read-out: MIC", "protocol": "as §1"}, "A. baumannii 515785": {"system": "A. baumannii 515785", "assay": "microbe, parasite or virus in culture", "format": "cell-based, Acinetobacter baumannii", "conditions": "Acinetobacter baumannii, 515785", "protocol": "as §1"}, "B. cereus": {"system": "B. cereus", "assay": "microbe, parasite or virus in culture", "format": "cell-based, Bacillus cereus", "conditions": "Bacillus cereus; B. cereus; read-out: MIC", "protocol": "as §1"}, "[3]": {"system": "P. aeruginosa (CF) AMT0060", "assay": "microbe, parasite or virus in culture", "format": "cell-based, Pseudomonas aeruginosa", "conditions": "Pseudomonas aeruginosa; P. aeruginosa (CF) AMT0060; read-out: MIC", "protocol": "as §1"}, "P. aeruginosa PA01": {"system": "P. aeruginosa PA01", "assay": "microbe, parasite or virus in culture", "format": "cell-based, Pseudomonas aeruginosa", "conditions": "Pseudomonas aeruginosa; P. aeruginosa PA01; read-out: MIC", "protocol": "as §1"}, "P. aeruginosa (CF) C3719": {"system": "P. aeruginosa (CF) C3719", "assay": "microbe, parasite or virus in culture", "format": "cell-based, Pseudomonas aeruginosa", "conditions": "Pseudomonas aeruginosa; P. aeruginosa (CF) C3719; read-out: MIC", "protocol": "as §1"}, "P. aeruginosa": {"system": "P. aeruginosa", "assay": "microbe, parasite or virus in culture", "format": "cell-based, Pseudomonas aeruginosa", "conditions": "Pseudomonas aeruginosa; P. aeruginosa; Supplementary Table 5; read-out: Minimum inhibitory Concentrations MICs", "protocol": "as §1"}, "[4]": {"system": "P. aeruginosa (CF) LES400", "assay": "microbe, parasite or virus in culture", "format": "cell-based, Pseudomonas aeruginosa", "conditions": "Pseudomonas aeruginosa; P. aeruginosa (CF) LES400; read-out: MIC", "protocol": "as §1"}, "S. aureus RN4220": {"system": "S. aureus RN4220", "assay": "MIC, broth microdilution", "format": "cell-based, Staphylococcus aureus", "conditions": "Staphylococcus aureus, sensitive, read-out: MIC", "protocol": "as §1"}, "List. monocytogenes": {"system": "List. monocytogenes", "assay": "microbe, parasite or virus in culture", "format": "cell-based, Listeria monocytogenes", "conditions": "Listeria monocytogenes; List. monocytogenes; Supplementary Table 5; read-out: Minimum inhibitory Concentrations MICs", "protocol": "as §1"}, "[5]": {"system": "L. monocytogenes NCTC 11994", "assay": "microbe, parasite or virus in culture", "format": "cell-based, Listeria monocytogenes", "conditions": "Listeria monocytogenes, NCTC11994; L. monocytogenes NCTC 11994; read-out: MIC", "protocol": "as §1"}},
  "data": [
    {"smiles": "O=C(O)c1cn(C2CC2)c2cc(N3CCNCC3)c(F)cc2c1=O", "note": "[Cip, ciprofloxacin, reference compound]", "values": [
      {"measurement": "MIC", "setting": "E. coli K12", "result": 0.06, "unit": "µg/mL"},
      {"measurement": "MIC", "setting": "E. coli", "result": 0.06, "unit": "µg/mL"},
      {"measurement": "MIC", "setting": "Ent. faecalis", "result": 62.5, "unit": "µg/mL"},
      {"measurement": "MIC", "setting": "Ent. faecalis JH2-2", "result": 64, "unit": "µg/mL"},
      {"measurement": "MIC", "setting": "S. aureus", "result": "> 250", "unit": "µg/mL"},
      {"measurement": "MIC", "setting": "EMRA-15", "result": "> 250", "unit": "µg/mL"},
      {"measurement": "MIC", "setting": "S. aureus EMRSA-15", "result": "> 256", "unit": "µg/mL"},
      {"measurement": "MIC", "setting": "Sal. typhimurium SL1344", "result": 0.12, "unit": "µg/mL"},
      {"measurement": "MIC", "setting": "Sal. typhimurium", "result": 0.12, "unit": "µg/mL"},
      {"measurement": "MIC", "setting": "K. pneumoniae 518842", "result": "> 128", "unit": "µg/mL"},
      {"measurement": "MIC", "setting": "K. pneumoniae 526903", "result": 0.03, "unit": "µg/mL"},
      {"measurement": "MIC", "setting": "K. pneumoniae NCTC 13442", "result": 64, "unit": "µg/mL"},
      {"measurement": "MIC", "setting": "[1]", "result": 0.25, "unit": "µg/mL"},
      {"measurement": "MIC", "setting": "[2]", "result": 16, "unit": "µg/mL"},
      {"measurement": "MIC", "setting": "A. baumannii 515722", "result": 16, "unit": "µg/mL"},
      {"measurement": "MIC", "setting": "A. baumannii 515908", "result": 16, "unit": "µg/mL"},
      {"measurement": "MIC", "setting": "A. baumannii 515785", "result": "> 128", "unit": "µg/mL"},
      {"measurement": "MIC", "setting": "B. cereus", "result": 0.015, "unit": "µg/mL"},
      {"measurement": "MIC", "setting": "[3]", "result": 0.12, "unit": "µg/mL"},
      {"measurement": "MIC", "setting": "P. aeruginosa PA01", "result": 0.5, "unit": "µg/mL"},
      {"measurement": "MIC", "setting": "P. aeruginosa (CF) C3719", "result": 4, "unit": "µg/mL"},
      {"measurement": "MIC", "setting": "P. aeruginosa", "result": 0.49, "unit": "µg/mL"},
      {"measurement": "MIC", "setting": "[4]", "result": 4, "unit": "µg/mL"},
      {"measurement": "MIC", "setting": "S. aureus RN4220", "result": "> 256", "unit": "µg/mL"},
      {"measurement": "MIC", "setting": "List. monocytogenes", "result": 62.5, "unit": "µg/mL"},
      {"measurement": "MIC", "setting": "[5]", "result": 64, "unit": "µg/mL"}
    ]}
  ]
}
